In assay [1] the target is T1, Polyunsaturated fatty acid lipoxygenase ALOX15 (Oryctolagus cuniculus, UniProt P12530).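 Further: inhibition of 15-lipoxygenase enzyme activity measured with linoleic acid as the substrate; in other assays of this panel Not Active means under 50% inhibition at 10 µM.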
T1 sequence (P12530 whole entry): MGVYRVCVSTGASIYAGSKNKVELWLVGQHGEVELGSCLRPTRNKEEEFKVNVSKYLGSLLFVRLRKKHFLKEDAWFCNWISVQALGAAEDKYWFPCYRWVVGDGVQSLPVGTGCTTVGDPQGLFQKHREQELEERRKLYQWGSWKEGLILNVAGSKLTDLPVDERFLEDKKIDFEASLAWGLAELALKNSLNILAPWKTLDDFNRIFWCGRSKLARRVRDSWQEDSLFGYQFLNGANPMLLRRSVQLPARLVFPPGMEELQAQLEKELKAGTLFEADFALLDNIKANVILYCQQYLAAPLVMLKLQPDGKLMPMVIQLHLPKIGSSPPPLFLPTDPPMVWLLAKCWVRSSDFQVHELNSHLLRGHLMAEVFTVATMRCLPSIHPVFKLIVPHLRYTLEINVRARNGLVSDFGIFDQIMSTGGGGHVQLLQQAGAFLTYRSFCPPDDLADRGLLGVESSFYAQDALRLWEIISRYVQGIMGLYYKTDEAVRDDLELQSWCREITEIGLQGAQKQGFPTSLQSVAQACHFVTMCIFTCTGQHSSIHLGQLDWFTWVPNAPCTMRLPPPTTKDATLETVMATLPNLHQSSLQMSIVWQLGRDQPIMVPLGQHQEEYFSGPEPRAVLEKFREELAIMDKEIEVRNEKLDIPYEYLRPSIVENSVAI
In words: biochemical. The assay is classed as tissue-based, Reticulocytes.

For assay [2], the target named is T2, Receptor-type tyrosine-protein phosphatase C (Homo sapiens, UniProt P08575).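 Further: inhibition of CD45 enzyme activity measured using DiFMUP as substrate; in other assays of this panel Not Active means under 50% inhibition at 10 µM.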
T2 sequence (P08575 whole entry): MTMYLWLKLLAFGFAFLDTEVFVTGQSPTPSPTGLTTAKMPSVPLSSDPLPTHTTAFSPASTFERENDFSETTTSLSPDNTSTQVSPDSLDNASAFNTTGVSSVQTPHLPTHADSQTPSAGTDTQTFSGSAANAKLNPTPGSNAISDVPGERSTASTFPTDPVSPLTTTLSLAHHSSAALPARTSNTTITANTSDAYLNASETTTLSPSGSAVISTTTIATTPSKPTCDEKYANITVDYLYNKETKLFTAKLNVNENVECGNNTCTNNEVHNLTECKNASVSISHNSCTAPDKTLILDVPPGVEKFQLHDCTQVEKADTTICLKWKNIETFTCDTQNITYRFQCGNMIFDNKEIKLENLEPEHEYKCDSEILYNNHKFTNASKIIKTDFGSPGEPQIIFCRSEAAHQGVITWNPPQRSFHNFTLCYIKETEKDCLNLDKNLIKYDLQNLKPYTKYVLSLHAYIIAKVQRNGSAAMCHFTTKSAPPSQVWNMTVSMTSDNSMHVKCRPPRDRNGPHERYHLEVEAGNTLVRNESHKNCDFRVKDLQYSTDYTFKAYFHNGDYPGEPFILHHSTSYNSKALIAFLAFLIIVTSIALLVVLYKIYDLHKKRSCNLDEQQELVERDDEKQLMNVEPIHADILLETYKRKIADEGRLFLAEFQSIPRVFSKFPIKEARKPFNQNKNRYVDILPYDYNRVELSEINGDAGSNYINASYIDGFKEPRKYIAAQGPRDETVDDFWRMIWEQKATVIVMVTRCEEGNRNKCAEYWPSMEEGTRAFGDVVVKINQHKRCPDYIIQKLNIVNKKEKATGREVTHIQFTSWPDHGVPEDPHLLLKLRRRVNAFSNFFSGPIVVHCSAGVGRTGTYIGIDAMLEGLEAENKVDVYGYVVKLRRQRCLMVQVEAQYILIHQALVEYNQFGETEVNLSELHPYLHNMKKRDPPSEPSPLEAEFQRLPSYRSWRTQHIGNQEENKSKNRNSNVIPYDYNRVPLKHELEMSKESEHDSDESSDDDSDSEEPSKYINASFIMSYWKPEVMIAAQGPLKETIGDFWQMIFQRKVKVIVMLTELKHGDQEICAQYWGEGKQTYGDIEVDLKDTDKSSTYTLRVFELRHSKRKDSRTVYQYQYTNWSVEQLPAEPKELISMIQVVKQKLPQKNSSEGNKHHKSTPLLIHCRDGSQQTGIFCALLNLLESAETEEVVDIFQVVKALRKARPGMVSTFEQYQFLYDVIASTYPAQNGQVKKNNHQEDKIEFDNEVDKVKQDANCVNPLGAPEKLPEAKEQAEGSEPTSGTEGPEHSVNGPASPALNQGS
The arrangement: species or system Escherichia coli.

Assay [3] concerns the target Mitogen-activated protein kinase 14 (Homo sapiens, UniProt Q16539). Set-up: species or system Escherichia coli.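 Further: inhibition of p38alpha enzyme activity in a biochemical kinase assay, with myelin basic protein serving as substrate; in other assays of this panel Not Active means under 50% inhibition at 10 µM.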
Assay [4] can be described thus: DRUGMATRIX: GABAA, Flunitrazepam, Central radioligand binding (ligand: [3H] Flunitrazepam). It is filed as cell membranes, Rattus norvegicus, Wistar, Brain, Membrane. Particulars: Not Active = under 50% inhibition at 10 µM.
Assay [5] concerns the target T3, Estrogen receptor (Homo sapiens, UniProt P03372). Further: in other assays of this panel Not Active means under 50% inhibition at 10 µM.
T3 sequence (P03372 whole entry): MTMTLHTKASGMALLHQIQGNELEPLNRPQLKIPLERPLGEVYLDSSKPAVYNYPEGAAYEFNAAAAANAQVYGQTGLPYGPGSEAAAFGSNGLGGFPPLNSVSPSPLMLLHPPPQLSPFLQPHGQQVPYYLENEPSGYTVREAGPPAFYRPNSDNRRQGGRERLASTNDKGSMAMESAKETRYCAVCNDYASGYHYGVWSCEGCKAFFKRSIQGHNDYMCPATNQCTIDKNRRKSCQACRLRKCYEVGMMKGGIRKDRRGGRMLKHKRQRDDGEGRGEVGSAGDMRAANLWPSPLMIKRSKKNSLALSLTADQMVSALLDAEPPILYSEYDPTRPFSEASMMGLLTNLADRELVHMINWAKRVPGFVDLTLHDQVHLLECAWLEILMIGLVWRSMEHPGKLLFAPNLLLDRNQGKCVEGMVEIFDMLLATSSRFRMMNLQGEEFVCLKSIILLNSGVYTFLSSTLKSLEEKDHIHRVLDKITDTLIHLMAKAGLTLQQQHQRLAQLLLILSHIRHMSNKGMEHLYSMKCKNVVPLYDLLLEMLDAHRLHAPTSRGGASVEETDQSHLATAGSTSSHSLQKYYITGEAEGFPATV
The following applies: sf9.

Assay [6] addresses D(3) dopamine receptor (Homo sapiens, UniProt P35462). In words: DRUGMATRIX: Dopamine D3 radioligand binding (ligand: [3H] Spiperone). It is filed as cell membranes, CHO, Membrane.

Chain of Mitogen-activated protein kinase 14 (Q16539 whole entry): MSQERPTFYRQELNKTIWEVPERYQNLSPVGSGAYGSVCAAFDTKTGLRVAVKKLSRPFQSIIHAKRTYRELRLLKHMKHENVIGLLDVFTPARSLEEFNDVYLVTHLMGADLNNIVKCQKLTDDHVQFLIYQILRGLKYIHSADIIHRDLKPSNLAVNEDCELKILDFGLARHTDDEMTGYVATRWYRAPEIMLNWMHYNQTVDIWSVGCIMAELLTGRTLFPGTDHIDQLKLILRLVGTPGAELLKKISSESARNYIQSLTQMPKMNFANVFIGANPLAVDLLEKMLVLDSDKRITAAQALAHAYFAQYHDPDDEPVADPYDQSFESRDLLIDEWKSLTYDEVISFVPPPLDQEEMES
Chain of D(3) dopamine receptor (P35462 whole entry): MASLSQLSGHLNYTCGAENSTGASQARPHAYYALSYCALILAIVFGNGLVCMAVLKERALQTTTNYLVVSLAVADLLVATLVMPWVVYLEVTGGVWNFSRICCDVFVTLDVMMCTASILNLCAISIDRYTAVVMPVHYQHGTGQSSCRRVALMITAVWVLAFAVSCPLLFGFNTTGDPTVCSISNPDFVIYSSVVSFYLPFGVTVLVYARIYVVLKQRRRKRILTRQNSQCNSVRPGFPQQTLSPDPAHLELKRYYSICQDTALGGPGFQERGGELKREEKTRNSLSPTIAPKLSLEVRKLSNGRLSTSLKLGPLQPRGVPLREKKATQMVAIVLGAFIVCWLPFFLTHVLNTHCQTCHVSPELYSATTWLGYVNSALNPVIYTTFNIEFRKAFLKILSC

A word on the IC50: it is the concentration that gives 50% inhibition. What is called Ki is the dissociation constant of the complex between target and ligand, obtained from inhibition or displacement. Take `ClC1=C(Cl)[C@]2(Cl)[C@@H]3[C@@H]4C[C@@H]([C@H]5O[C@@H]45)[C@@H]3[C@@]1(Cl)C2(Cl)Cl` [DIELDRIN]: the IC50 result is “Not Active” in assay [1] (reticulocytes); “Not Active” in assay [2]; 43.2 µM in assay [3] (read-out: IC50); “Not Active” in assay [4]; “Not Active” in assay [5]; “Not Active” in assay [6] (cho). Moreover, the Ki result in assay [4] is on record as “Not Active”.

For the compound `CC1(COc2ccc(CC3SC(=O)NC3=O)cc2)CCCCC1` (stereo not given) [CIGLITAZONE], the IC50 result is “Not Active” in assay [1] (reticulocytes); “Not Active” in assay [2]; “Not Active” in assay [3]; “Not Active” in assay [4]; “Not Active” in assay [5]; 26.7 µM in assay [6] (read-out: IC50). Moreover, the values for the Ki entry in assay [4] and in assay [6] (read-out: Ki) were “Not Active” and 9.07 µM, respectively.

With `CNC[C@H](O)c1ccc(O)c(O)c1` [EPINEPHRINE], the IC50 in assay [1] (read-out: IC50) is 3.28 µM; in assay [2], “Not Active”; in assay [3], “Not Active”; in assay [4] it was “Not Active”; in assay [5], “Not Active”; in assay [6] (cho) it was “Not Active”. Besides, the Ki result in assay [4] is recorded as “Not Active”.

On to CARBOXYMETHYLCELLULOSE, for which the IC50 result in assay [1] (reticulocytes), in assay [2], in assay [3], in assay [4], in assay [5] and in assay [6] (cho) was “Not Active” in each case. The Ki result in assay [1] (reticulocytes), in assay [2], in assay [3], in assay [4], in assay [5] and in assay [6] (cho) was “Not Active” in each case.

As for `C=CCN1CC[C@]23c4c5ccc(O)c4O[C@H]2/C(=N/N=C2\CC[C@@]4(O)[C@H]6Cc7ccc(O)c8c7[C@@]4(CCN6CC=C)[C@H]2O8)CC[C@@]3(O)[C@H]1C5` [NALOXONAZINE], the IC50 result in assay [1] (reticulocytes), in assay [2], in assay [3], in assay [4], in assay [5] and in assay [6] (cho) was “Not Active” throughout. Also, in assay [4], the Ki entry is reported as “Not Active”.

For `CO[C@H]1O[C@@H]2O[C@@]3(C)CC[C@H]4[C@H](C)CC[C@@H]([C@H]1C)[C@@]24OO3`, the IC50 result in assay [1] (reticulocytes), in assay [2], in assay [3], in assay [4], in assay [5] and in assay [6] (cho) was “Not Active” each time. The Ki result in assay [4] is recorded as “Not Active”.

Take `O=C(O)CNCP(=O)(O)O` [GLYPHOSATE]: the IC50 result in assay [1] (reticulocytes), in assay [2], in assay [3], in assay [4], in assay [5] and in assay [6] (cho) was “Not Active” throughout. Moreover, the Ki result in assay [4] was “Not Active”.

Values taken from ChEMBL document CHEMBL1909046, “DrugMatrix in vitro pharmacology data”.
